The source of these data is patent publication US9353082B2, “Pharmaceutical compounds” (BIAL—PORTELA & CA, S.A., priority 2008, dated 2016).

Test [1] addresses T1, FAAH (Mus musculus, UniProt O08914).
T1 construct: A fragment of liver, left lung lobe and brain without cerebellum were removed; from tissue; host or cells: male NMRI mice; brain (without cerebellum) and liver homogenates
T1 sequence (O08914 1-579): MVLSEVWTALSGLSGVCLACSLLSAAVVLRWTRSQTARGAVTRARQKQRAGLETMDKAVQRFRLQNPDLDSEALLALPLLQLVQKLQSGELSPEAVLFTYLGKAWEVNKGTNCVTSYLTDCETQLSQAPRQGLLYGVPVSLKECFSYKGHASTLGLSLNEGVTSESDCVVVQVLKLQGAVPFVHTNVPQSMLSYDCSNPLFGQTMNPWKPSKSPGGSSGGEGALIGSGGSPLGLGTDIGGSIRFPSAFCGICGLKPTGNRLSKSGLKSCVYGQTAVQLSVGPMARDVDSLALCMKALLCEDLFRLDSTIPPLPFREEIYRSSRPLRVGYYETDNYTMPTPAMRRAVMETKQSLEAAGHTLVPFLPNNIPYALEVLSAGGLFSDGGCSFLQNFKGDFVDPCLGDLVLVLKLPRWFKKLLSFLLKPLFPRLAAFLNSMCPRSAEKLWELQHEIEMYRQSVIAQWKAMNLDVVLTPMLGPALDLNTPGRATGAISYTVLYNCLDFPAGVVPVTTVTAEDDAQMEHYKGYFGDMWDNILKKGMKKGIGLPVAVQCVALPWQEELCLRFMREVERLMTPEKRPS
The test is described as follows: In vivo FAAH inhibition after oral dosing, remaining activity in brain homogenate (BRh, central nervous tissue). Also on record: species or system NMRI mice. Particulars: brain homogenate, low value = strong inhibitor; for In Vivo BRh 3 mg·kg 8 h (remaining FAAH activity, % of control): 8 h after dosing; for In Vivo BRh 3 mg · kg · 8 h (remaining FAAH activity): 3 mg/kg oral. The protocol: (§1) The in vivo test was performed according to the protocol described below. BRh indicates inhibition in central nervous tissue and LVh indicates inhibition in peripheral tissue, in this case liver.
(§2) The animals used for experiments were male NMRI mice (weighing 27-44 g) obtained from Interfauna Ibérica (Spain). Mice were kept 5 per cage, under controlled environmental conditions (12 hr light/dark cycle and room temperature 22±1° C.). Food and tap water were allowed ad libitum and the experiments were all carried out during daylight hours.
(§3) Animals were administered 30 mg/kg or 3 mg/kg compounds of the invention via oral route (8 ml/kg; compound suspended in 0.5% carboxymethylcellulose (CMC) or solubilized in water) or vehicle (controls) using animal feeding stainless steel curve needles (Perfectum, U.S.A.). Fifteen minutes before sacrifice animal were anesthetized with pentobarbital 60 mg/kg administered intraperitoneally. A fragment of liver, left lung lobe and brain without cerebellum were removed and put in plastic vials containing membrane buffer (3 mM MgCl2, 1 mM EDTA, 50 mM Tris HCl pH 7.4). Tissues were stored at −30° C. until analysis.
(§4) Animals were always fasted overnight before administration of compounds except for time points of >18 h, where food was removed on the morning of day of administration and the compound was administered in the afternoon of the same day. Animals were then given water but nothing else.
(§5) Tissues were thawed on ice and were homogenized in 10 volumes of membrane buffer (3 mM MgCl2, 1 mM EDTA, 50 mM Tris HCl pH 7.4) with either Potter-Elvejhem (brains—8 strokes at 500 rpm) or Heidolph Diax (livers—2 strokes at position 5 for 20 sec with 30 sec pauses).
(§6) Total protein in tissues was determined with the BioRad Protein Assay (BioRad) using a standard curve of BSA (50-250 μg/ml).
(§7) Reaction mix (total volume of 200 μl) contained: […] (2 μM AEA+5 nM ^3H-AEA), 0.1% fatty acid free BSA, 15 μg (brain), 5 μg (liver) or 50 μg (lung) protein, in 1 mM EDTA, 10 mM Tris pH 7.6. After a […] pre-incubation period at 37° C., reaction was started by the addition of the substrate solution (cold AEA+radiolabelled AEA+BSA). Reaction was carried out for 10 min (brain and lung) or […] (liver) before termination by the addition of 400 μl activated charcoal suspension (8 g charcoal in 32 ml 0.5 M HCl in continuous agitation). After a […] incubation period at room temperature with agitation, charcoal was sedimented by centrifugation in microfuge (10 min at 13000 rpm). 200 μl of the supernatant were added to 800 μl Optiphase Supermix scintillation cocktail previously distributed in 24-well plates. Counts per minute (cpm) were determined in a MicrobetaTriLux scintillation counter.
(§8) In each assay blanks (without protein) were prepared.
(§9) The percentage of remaining enzymatic activity was calculated in respect to controls and after blank subtraction.

Test [2] deals with T1, FAAH. The test can be described thus: In vivo FAAH inhibition after oral dosing, remaining activity in liver homogenate (LVh, peripheral tissue). Further details: species or system NMRI mice. As to conditions: liver homogenate, low value = strong inhibitor; for In Vivo LVh 3 mg·kg 8 h (remaining FAAH activity, % of control): 8 h after dosing; for In Vivo LVh 3 mg · kg · 8 h (remaining FAAH activity): 3 mg/kg oral. The protocol: as §1, §2, §3, §4, §5, §6, §7, §8, §9

As to `Br.CN(C(=O)n1cnc(-c2ccc(O)c(O)c2)c1)C1CCN(Cc2ccccc2)CC1` [Compound no. 465, N-(1-benzylpiperidin-4-yl)-4-(3,4-dihydroxyphenyl)-N-methyl-1H-imidazole-1-carboxamide hydrobromide], the “In Vivo BRh 3 mg·kg 8 h (remaining FAAH activity, % of control)” value on FAAH [1] is listed as 3.8 % of control. Besides, the “In Vivo LVh 3 mg·kg 8 h (remaining FAAH activity, % of control)” value at FAAH [2] is on record as 3.1 % of control.
The like results for `COc1ccc(-c2cn(C(=O)N(C)C3CCOCC3)cn2)cc1N` [Compound no. 468, 4-(3-amino-4-methoxyphenyl)-N-methyl-N-(tetrahydro-2H-pyran-4-yl)-1H-imidazole-1-carboxamide] were, in that order, 4.7 % of control and 4.3 % of control.
Regarding `CN(C(=O)n1cnc(-c2ccc(O)cc2)c1)C1CCN(C(=O)OC(C)(C)C)CC1` [Compound no. 469, tert-butyl 4-(4-(4-hydroxyphenyl)-N-methyl-1H-imidazole-1-carboxamido)piperidine-1-carboxylate], the “In Vivo BRh 3 mg·kg 8 h (remaining FAAH activity, % of control)” value on FAAH [1] was 1.4 % of control. Also, at FAAH [2], the “In Vivo LVh 3 mg·kg 8 h (remaining FAAH activity, % of control)” value is 0.7 % of control.
Regarding `COc1ccc(-c2cn(C(=O)N(C)C3CCCCC3)cn2)cc1C(N)=O` [Compound no. 482, 4-(3-carbamoyl-4-methoxyphenyl)-N-cyclohexyl-N-methyl-1H-imidazole-1-carboxamide], the “In Vivo BRh 3 mg·kg 8 h (remaining FAAH activity, % of control)” value at FAAH [1] is recorded as 83.2 % of control. Also, the “In Vivo LVh 3 mg·kg 8 h (remaining FAAH activity, % of control)” value at FAAH [2] was 16.7 % of control.
For `COc1ccc(-c2cn(C(=O)N(C)C3CCCCC3)cn2)cc1NS(C)(=O)=O` [Compound no. 485, N-cyclohexyl-4-(4-methoxy-3-(methylsulfonamido)phenyl)-N-methyl-1H-imidazole-1-carboxamide], in that order: 92.1 % of control and 15.1 % of control.
For `CN(C(=O)n1cnc(-c2cccnc2)c1)C1CCN(CCc2ccccc2)CC1` [Compound no. 488, N-methyl-N-(1-phenethylpiperidin-4-yl)-4-(pyridin-3-yl)-1H-imidazole-1-carboxamide], in that order: 3.8 % of control and 2 % of control.
`CN(C(=O)n1nnc2ccccc21)C1CCN(Cc2ccccc2)CC1.Cl` [Compound no. 492, N-(1-benzylpiperidin-4-yl)-N-methyl-1H-benzo[d][1,2,3]triazole-1-carboxamide hydrochloride]: the “In Vivo BRh 3 mg·kg 8 h (remaining FAAH activity, % of control)” value on FAAH [1] is 0.9 % of control. On FAAH [2], the “In Vivo LVh 3 mg·kg 8 h (remaining FAAH activity, % of control)” value is 0.7 % of control.
Regarding `CN(C(=O)n1cnc(-c2ccc(O)c([N+](=O)[O-])c2)c1)C1CCOCC1` [Compound no. 494, 4-(4-hydroxy-3-nitrophenyl)-N-methyl-N-(tetrahydro-2H-pyran-4-yl)-1H-imidazole-1-carboxamide], the “In Vivo BRh 3 mg · kg · 8 h (remaining FAAH activity)” value on FAAH [1] is on record as 48.9 % of control. Also, the “In Vivo LVh 3 mg · kg · 8 h (remaining FAAH activity)” value on FAAH [2] is given as 22.9 % of control.
For `CN(C(=O)n1cnc(-c2ccc(O)c(F)c2)c1)C1CCOCC1` [Compound no. 495, 4-(3-fluoro-4-hydroxyphenyl)-N-methyl-N-(tetrahydro-2H-pyran-4-yl)-1H-imidazole-1-carboxamide], in that order: 2.1 % of control and 2.3 % of control.
`CCCN1CCC(N(C)C(=O)n2cnc(-c3cccc(OC)c3)c2)CC1` [Compound no. 498, 4-(3-methoxyphenyl)-N-methyl-N-(1-propylpiperidin-4-yl)-1H-imidazole-1-carboxamide]: the “In Vivo BRh 3 mg · kg · 8 h (remaining FAAH activity)” value on FAAH [1] is recorded as 21.4 % of control. The “In Vivo LVh 3 mg · kg · 8 h (remaining FAAH activity)” value at FAAH [2] is 12.6 % of control.
